# From PubChem BioAssay (NCI)
#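 How tested: cells in 96-well plates exposed to compound for 48 hours at five concentrations. The concentration for 50% growth inhibition is given as GI50. Definition used: TGI = concentration required for complete inhibition of growth.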
# Assays:
# Assay in all cases: inhibition of tumour cell growth, NCI panel, 48 h
# [1] = test system: DU-145 prostate
# [2] = test system: RPMI-8226 leukemia
# [3] = test system: HOP-62 NSCLC
# [4] = test system: NCI-H226 lung
# [5] = test system: NCI-H460 lung
# [6] = test system: SR leukemia
# [7] = test system: MALME-3M melanoma
# [8] = test system: NCI/ADR-RES ovarian
# [9] = test system: CAKI-1 renal
# [10] = test system: LOX IMVI melanoma
# [11] = test system: IGROV1 ovarian
# [12] = test system: OVCAR-3 ovarian
# [13] = test system: UO-31 renal
# [14] = test system: 786-0 renal
# [15] = test system: T-47D breast
# [16] = test system: SF-539 CNS
# [17] = test system: A498 renal
# [18] = test system: SK-OV-3 ovarian
# [19] = test system: HCT-15 colon
# [20] = test system: SNB-75 CNS
# [21] = test system: PC-3 prostate
# [22] = test system: HL-60(TB) leukemia
# [23] = test system: MDA-MB-231 breast
# [24] = test system: SK-MEL-2 melanoma
# [25] = test system: ACHN renal
# [26] = test system: SW-620 colon
# [27] = test system: OVCAR-5 ovarian
# [28] = test system: HOP-92 NSCLC
structure (smiles),measurement,setting,value
Clc1ccc(Cn2c(CN3CCCC3)nc3ccccc32)cc1,GI50,[1],32.9 µM
same,TGI,[1],> 100 µM
same,GI50,[2],16.4 µM
same,TGI,[2],41.7 µM
same,GI50,[3],20.8 µM
same,TGI,[3],61.5 µM
same,GI50,[4],14.8 µM
same,TGI,[4],41.8 µM
same,GI50,[5],14.5 µM
same,TGI,[5],34.4 µM
same,GI50,[6],23.5 µM
same,TGI,[6],75.4 µM
same,GI50,[7],14.9 µM
same,TGI,[7],33.4 µM
same,GI50,[8],24.3 µM
same,TGI,[8],> 100 µM
same,GI50,[9],14.7 µM
same,TGI,[9],54.8 µM
same,GI50,[10],17 µM
same,TGI,[10],34.1 µM
same,GI50,[11],23.3 µM
same,TGI,[11],> 100 µM
same,GI50,[12],18.4 µM
same,TGI,[12],47.7 µM
same,GI50,[13],12.4 µM
same,TGI,[13],36.5 µM
same,GI50,[14],16.8 µM
same,TGI,[14],32.9 µM
same,GI50,[15],19.7 µM
same,TGI,[15],83.5 µM
same,GI50,[16],18 µM
same,TGI,[16],37.1 µM
same,GI50,[17],11.3 µM
same,TGI,[17],31.3 µM
same,GI50,[18],20 µM
same,TGI,[18],48.8 µM
same,GI50,[19],24.7 µM
same,TGI,[19],87.7 µM
same,GI50,[20],21.5 µM
same,TGI,[20],82.9 µM
same,GI50,[21],19.6 µM
same,TGI,[21],58.3 µM
same,GI50,[22],23.8 µM
same,TGI,[22],65.2 µM
same,GI50,[23],18.8 µM
same,TGI,[23],41.8 µM
same,GI50,[24],17.8 µM
same,TGI,[24],34.6 µM
same,GI50,[25],31.1 µM
same,TGI,[25],> 100 µM
same,GI50,[26],14.8 µM
same,TGI,[26],33.3 µM
same,GI50,[27],25.3 µM
same,TGI,[27],87.8 µM
same,GI50,[28],6.03 µM
same,TGI,[28],29.5 µM
